Measured values taken from PMC9544254 (Clinical and Experimental Allergy, 2022).

Key:
[1] = target: Cathepsin D (Homo sapiens, UniProt P07339); experiment: isolated enzyme kinetic fluorogenic substrate IC50 assay; format: biochemical; details: 5 min pre‐incubation
Experimental: (§3) Protease inhibition was measured by monitoring the rate of fluorescence generation at a fixed substrate concentration over a range of inhibitor concentrations. […] To estimate the IC50, a 4‐parameter logistic dose‐response curve was fitted to the normalized rate of fluorescence increase.

[2] = target: T1, PKa (Homo sapiens, UniProt P03952); experiment: phase 1: DXS‐stimulated PKa activity in plasma after oral KVD900; format: in vivo; details: healthy male volunteers, 600 mg oral powder in capsule, read-out: inhibition of DXS‐stimulated PKa activity compared with pre‐dose
T1 construct: host or cells: human pooled plasma, stimulated with dextran sulphate
Experimental: PKa enzyme activity was measured in human pooled plasma (control plasma, Affinity Biologicals) using H‐D‐Pro‐Phe‐Arg‐AFC. The KKS in plasma was stimulated by the addition of dextran sulphate 500 kDa (DXS; Sigma‐Aldrich). PKa activity in the plasma was estimated based on the maximum rate of fluorescence increase. […] Plasma samples were stimulated with 6.25 or 10 µg/ml DXS and PKa enzyme activity was measured as described above. Percent plasma protein binding (PPB %) was determined using Rapid Equilibrium Dialysis (Pierce RED technology, ThermoFisher Scientific). Compounds were spiked into control plasma (final concentration 5 μM) and dialysed against phosphate buffer (pH 7.4) for 5 h at 37°C. Samples were analysed using liquid chromatography‐tandem mass spectrometry to quantify the fraction of unbound compound.
(§1) Participants with HAE were within their intercritical period. Blood samples were collected into 3.2% sodium citrate, centrifuged at 1500 g for 10 min at 4°C, and plasma was stored at −80°C until analysis. Additional information on these trials can be found elsewhere (NCT04349800 and NCT04208412, available at https://clinicaltrials.gov).

[3] = target: Trypsin; experiment: isolated enzyme kinetic fluorogenic substrate IC50 assay; format: biochemical, human; details: 5 min pre‐incubation
Experimental: as §3

[4] = plasma protein binding, Rapid Equilibrium Dialysis; format: in vitro ADME; details: human, pH 7.4, control plasma, dialysed 5 h at 37°C, read-out: plasma protein binding (PPB) (converted)
Experimental: PKa enzyme activity was measured in human pooled plasma (control plasma, Affinity Biologicals) using H‐D‐Pro‐Phe‐Arg‐AFC. The KKS in plasma was stimulated by the addition of dextran sulphate 500 kDa (DXS; Sigma‐Aldrich). PKa activity in the plasma was estimated based on the maximum rate of fluorescence increase. […] Percent plasma protein binding (PPB %) was determined using Rapid Equilibrium Dialysis (Pierce RED technology, ThermoFisher Scientific). Compounds were spiked into control plasma (final concentration 5 μM) and dialysed against phosphate buffer (pH 7.4) for 5 h at 37°C. Samples were analysed using liquid chromatography‐tandem mass spectrometry to quantify the fraction of unbound compound.

[5] = target: Tissue plasminogen activator (Homo sapiens, UniProt P00750); experiment: isolated enzyme kinetic fluorogenic substrate IC50 assay; format: biochemical; details: 5 min pre‐incubation
Experimental: as §3

[6] = target: FXa (Homo sapiens, UniProt P00742); experiment: as above; format: biochemical; details: 5 min pre‐incubation
Experimental: as §3

[7] = phase 2: plasma concentrations of KVD900 in HAE subjects; format: in vivo; details: both sexes, human, HAE Type 1 and Type 2 subjects, 600 mg oral tablets, arithmetic mean, n = 42
Experimental: as §1

[8] = tested on: FXII; experiment: phase 1: capillary immunoassay of FXII and FXIIa in DXS‐stimulated plasma after oral KVD900; format: in vivo, human; details: healthy volunteers, 600 mg oral
Experimental: (§2) Undiluted plasma samples obtained at pre‐dose and post‐dose from healthy controls and HAE patients from clinical trials with KVD900, described below, were stimulated with DXS, as described above. Reactions were stopped by rapidly heating samples to 95°C for 10 min in Laemmli buffer containing β‐mercaptoethanol. Components of the KKS in plasma samples (diluted 1:20) were separated by capillary electrophoresis using 12–230 kDa separation modules in the Protein Simple WES^TM system (ProteinSimple). Proteins were detected by immunoassay and quantified from peak areas corresponding to chemiluminescence intensities using Compass for Simple Western software (Version 4.0.0, ProteinSimple) and visualized as virtual blots generated from capillary electropherograms as previously described.[18] Standard curves were generated to estimate protein concentrations in plasma using known quantities of purified HK, plasma prekallikrein (PK), FXII and FXIIa (Enzyme Research Laboratories), spiked into HK (Affinity Biologicals), PK (Affinity Biologicals) and FXII (Technoclone) deficient plasma respectively. Immunodetection was performed using primary antibodies for PK (clone 13G11) (Invitrogen), HK and cHK: KNG17A12 Antibody (Molecular Innovations), FXII and FXIIa: FXII20B2 antibody (Molecular Innovations) and horseradish peroxidase‐conjugated secondary antibody. The anti‐HK light chain antibody used detected HK and two cHK bands. The total cHK was quantified by taking the sum of the peak areas for both cHK bands.
as §1

[9] = tested on: HK cleavage; experiment: phase 1: capillary immunoassay of HK and cHK in DXS‐stimulated plasma after oral KVD900; format: in vivo, human; details: 600 mg oral
Experimental: as §2, §1

[10] = target: FXIIa (Homo sapiens, UniProt P00748); experiment: isolated enzyme kinetic fluorogenic substrate IC50 assay; format: biochemical; details: 5 min pre‐incubation
Experimental: as §3

[11] = target: T1, PKa; experiment: phase 2: DXS‐stimulated PKa activity in HAE plasma after oral KVD900; format: in vivo; details: HAE subjects (n = 12), 600 mg oral tablets; 45 min post‐dose
[12] = target: Thrombin (Homo sapiens, UniProt P00734); experiment: isolated enzyme kinetic fluorogenic substrate IC50 assay; format: biochemical; details: 5 min pre‐incubation
Experimental: as §3

[13] = target: Cathepsin G (Homo sapiens, UniProt P08311); experiment: as above; format: biochemical; details: 5 min pre‐incubation
Experimental: as §3

[14] = tested on: plasma prekallikrein (PK); experiment: phase 1: capillary immunoassay of PK in DXS‐stimulated plasma after oral KVD900; format: in vivo, human; details: healthy volunteers, 600 mg oral
Experimental: as §2, §1

[15] = target: Tryptase; experiment: isolated enzyme kinetic fluorogenic substrate IC50 assay; format: biochemical, human; details: 5 min pre‐incubation
Experimental: as §3

[16] = target: Plasmin (Homo sapiens, UniProt P00747); experiment: as above; format: biochemical; details: 5 min pre‐incubation
Experimental: as §3

[17] = target: FXIa (Homo sapiens, UniProt P03951); experiment: as above; format: biochemical; details: 5 min pre‐incubation
Experimental: as §3

[18] = target: Renin (Homo sapiens, UniProt P00797); experiment: as above; format: biochemical; details: 5 min pre‐incubation
Experimental: as §3

[19] = tested on: HK cleavage; experiment: phase 2: DXS‐stimulated HK cleavage assay in HAE plasma after oral KVD900; format: in vivo, human
Experimental: as §2, §1

[20] = tested on: PKa‐mediated HK cleavage; experiment: capillary‐based immunoassay of DXS‐stimulated HK cleavage in control plasma; format: biochemical, human; details: for DXS‐stimulated generation of cHK: 6.25 µg/ml DXS
Experimental: as §2

[21] = target: Tissue kallikrein (Homo sapiens, UniProt P06870); experiment: isolated enzyme kinetic fluorogenic substrate IC50 assay; format: biochemical; details: 5 min pre‐incubation
Experimental: as §3

[22] = target: FVIIa (Homo sapiens, UniProt P08709); experiment: as above; format: biochemical; details: 5 min pre‐incubation
Experimental: as §3

[23] = target: Beta‐secretase 1 (Homo sapiens, UniProt P56817); experiment: as above; format: biochemical; details: 5 min pre‐incubation
Experimental: as §3

[24] = tested on: PKa; set-up: method as in PMID 7692967; details: cited from earlier work
[25] = six HAE patients, 600 mg oral tablets, 15 min through 4 h post‐dose

T1 sequence (P03952 391-638 limits assumed): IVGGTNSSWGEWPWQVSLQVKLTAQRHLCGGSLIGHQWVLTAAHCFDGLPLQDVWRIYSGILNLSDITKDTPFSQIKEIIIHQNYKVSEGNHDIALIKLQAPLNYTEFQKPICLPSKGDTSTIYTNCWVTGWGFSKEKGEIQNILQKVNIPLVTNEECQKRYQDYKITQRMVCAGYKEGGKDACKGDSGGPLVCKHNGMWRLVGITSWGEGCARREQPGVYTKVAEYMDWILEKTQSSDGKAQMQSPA
T1 sequence (P03952 20-390 partner limits assumed): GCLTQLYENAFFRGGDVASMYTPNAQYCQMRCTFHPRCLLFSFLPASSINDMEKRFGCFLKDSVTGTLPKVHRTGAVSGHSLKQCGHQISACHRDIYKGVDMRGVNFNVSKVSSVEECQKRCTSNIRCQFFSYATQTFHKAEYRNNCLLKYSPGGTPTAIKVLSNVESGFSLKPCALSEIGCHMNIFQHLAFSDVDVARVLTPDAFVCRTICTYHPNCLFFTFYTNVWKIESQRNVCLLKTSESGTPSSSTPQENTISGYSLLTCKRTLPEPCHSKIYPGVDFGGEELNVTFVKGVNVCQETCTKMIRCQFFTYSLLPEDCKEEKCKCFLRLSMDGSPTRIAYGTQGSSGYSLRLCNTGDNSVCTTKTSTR
Sequence of FXIa (P03951 388-625 limits assumed): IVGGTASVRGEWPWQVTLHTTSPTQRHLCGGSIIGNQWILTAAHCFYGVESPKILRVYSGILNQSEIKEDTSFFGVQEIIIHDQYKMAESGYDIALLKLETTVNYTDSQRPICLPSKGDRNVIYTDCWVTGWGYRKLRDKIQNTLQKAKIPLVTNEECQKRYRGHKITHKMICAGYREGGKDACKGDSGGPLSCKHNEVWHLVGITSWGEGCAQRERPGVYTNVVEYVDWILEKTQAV
Sequence of FXIa (P03951 19-387 partner limits assumed): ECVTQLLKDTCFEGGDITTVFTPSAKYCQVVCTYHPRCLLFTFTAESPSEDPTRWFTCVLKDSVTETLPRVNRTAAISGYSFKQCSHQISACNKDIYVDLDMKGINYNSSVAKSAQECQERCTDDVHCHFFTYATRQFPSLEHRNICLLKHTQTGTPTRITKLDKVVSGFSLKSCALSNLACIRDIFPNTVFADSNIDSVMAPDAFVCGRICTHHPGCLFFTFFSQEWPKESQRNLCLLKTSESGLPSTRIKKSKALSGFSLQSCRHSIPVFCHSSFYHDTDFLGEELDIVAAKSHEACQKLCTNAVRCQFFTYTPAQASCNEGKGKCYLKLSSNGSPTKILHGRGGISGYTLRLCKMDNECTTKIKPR
Sequence of FVIIa (P08709 213-466 limits assumed): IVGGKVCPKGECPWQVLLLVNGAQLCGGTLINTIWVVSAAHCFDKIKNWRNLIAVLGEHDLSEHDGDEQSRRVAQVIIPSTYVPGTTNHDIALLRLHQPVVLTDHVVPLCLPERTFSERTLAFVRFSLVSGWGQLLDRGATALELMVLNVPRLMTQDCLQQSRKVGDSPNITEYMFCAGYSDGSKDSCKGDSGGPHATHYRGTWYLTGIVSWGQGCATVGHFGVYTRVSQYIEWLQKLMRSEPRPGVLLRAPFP
Sequence of FVIIa (P08709 61-212 partner limits assumed): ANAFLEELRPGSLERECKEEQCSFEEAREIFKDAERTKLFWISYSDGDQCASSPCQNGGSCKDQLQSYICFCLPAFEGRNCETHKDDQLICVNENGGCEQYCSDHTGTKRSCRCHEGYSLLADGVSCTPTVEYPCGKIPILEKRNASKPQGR
Sequence of Plasmin (P00747 581-810 limits assumed): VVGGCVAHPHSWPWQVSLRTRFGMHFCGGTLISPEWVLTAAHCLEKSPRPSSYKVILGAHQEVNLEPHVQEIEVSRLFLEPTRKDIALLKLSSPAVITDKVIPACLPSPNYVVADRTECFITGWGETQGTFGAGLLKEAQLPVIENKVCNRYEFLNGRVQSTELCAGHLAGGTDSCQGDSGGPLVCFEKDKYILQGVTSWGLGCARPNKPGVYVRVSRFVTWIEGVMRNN
Sequence of Plasmin (P00747 97-580 partner limits assumed): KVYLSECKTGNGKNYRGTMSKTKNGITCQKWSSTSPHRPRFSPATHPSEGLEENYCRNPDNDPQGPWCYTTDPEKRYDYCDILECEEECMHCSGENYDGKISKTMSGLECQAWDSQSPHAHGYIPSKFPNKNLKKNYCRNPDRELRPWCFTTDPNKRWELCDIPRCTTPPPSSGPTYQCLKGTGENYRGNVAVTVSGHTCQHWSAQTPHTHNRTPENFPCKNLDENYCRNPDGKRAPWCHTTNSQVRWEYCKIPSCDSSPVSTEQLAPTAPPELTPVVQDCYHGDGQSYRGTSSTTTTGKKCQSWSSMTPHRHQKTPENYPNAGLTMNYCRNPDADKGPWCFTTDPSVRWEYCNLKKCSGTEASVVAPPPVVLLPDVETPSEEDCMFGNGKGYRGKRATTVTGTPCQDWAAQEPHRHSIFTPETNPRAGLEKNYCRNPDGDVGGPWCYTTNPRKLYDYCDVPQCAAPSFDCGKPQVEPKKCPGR
Sequence of Renin (P00797 67-406): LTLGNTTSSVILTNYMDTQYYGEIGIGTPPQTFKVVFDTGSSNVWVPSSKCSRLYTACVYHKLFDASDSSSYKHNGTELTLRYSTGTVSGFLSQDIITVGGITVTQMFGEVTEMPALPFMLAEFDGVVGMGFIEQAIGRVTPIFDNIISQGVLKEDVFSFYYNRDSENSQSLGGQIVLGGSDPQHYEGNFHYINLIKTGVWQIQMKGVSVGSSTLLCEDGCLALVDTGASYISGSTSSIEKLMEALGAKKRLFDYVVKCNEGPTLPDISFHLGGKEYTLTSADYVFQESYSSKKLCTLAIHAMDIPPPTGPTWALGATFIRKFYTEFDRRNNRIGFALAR
Sequence of Cathepsin D (P07339 65-412): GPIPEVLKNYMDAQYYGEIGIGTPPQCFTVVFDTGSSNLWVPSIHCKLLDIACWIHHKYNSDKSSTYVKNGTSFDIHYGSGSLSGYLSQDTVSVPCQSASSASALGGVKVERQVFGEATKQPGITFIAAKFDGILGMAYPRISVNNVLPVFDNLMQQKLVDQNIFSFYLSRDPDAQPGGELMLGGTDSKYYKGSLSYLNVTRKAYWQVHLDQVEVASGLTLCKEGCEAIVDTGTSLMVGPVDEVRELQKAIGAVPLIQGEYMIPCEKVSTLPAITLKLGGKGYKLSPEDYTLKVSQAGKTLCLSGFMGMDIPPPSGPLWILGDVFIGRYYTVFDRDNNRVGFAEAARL
Sequence of Cathepsin G (P08311 21-255): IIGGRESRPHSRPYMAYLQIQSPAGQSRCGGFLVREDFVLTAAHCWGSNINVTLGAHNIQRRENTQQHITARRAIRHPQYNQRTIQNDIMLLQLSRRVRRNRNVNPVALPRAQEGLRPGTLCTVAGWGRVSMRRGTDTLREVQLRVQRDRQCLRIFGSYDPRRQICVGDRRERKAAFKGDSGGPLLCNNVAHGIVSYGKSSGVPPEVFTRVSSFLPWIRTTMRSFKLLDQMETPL
Sequence of FXa (P00742 235-488 limits assumed): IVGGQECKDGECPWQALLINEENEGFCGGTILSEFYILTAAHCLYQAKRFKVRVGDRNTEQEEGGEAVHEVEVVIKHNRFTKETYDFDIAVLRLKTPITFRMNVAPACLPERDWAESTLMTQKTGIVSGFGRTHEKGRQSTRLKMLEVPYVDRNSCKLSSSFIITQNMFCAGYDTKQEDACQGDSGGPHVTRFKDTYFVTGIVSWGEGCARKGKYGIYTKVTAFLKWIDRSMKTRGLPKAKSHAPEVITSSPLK
Sequence of FXa (P00742 41-179 partner limits assumed): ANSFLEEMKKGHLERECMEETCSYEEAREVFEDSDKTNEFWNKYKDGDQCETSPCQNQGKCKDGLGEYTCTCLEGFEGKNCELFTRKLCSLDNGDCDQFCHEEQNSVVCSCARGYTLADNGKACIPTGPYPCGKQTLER
Sequence of Beta‐secretase 1 (P56817 46-501): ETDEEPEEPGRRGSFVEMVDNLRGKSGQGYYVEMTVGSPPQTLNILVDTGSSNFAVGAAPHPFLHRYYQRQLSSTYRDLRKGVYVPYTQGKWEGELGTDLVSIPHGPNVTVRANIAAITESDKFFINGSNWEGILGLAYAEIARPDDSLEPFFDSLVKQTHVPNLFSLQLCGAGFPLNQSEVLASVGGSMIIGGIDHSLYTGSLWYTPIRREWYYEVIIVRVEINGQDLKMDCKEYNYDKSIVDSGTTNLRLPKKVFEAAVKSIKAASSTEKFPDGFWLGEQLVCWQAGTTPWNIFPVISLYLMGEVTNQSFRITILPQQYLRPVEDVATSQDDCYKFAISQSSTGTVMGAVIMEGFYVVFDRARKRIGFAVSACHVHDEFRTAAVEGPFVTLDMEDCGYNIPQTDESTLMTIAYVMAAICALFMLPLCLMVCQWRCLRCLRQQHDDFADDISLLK
Sequence of Tissue kallikrein (P06870 25-262): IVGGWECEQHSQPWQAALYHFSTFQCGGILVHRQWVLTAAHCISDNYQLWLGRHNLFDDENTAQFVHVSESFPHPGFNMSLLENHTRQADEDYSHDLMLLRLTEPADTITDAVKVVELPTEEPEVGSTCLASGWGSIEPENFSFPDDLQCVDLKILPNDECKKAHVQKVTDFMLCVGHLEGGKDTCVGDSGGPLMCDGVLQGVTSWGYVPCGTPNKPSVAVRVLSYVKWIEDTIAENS
Sequence of FXIIa (P00748 373-615 limits assumed): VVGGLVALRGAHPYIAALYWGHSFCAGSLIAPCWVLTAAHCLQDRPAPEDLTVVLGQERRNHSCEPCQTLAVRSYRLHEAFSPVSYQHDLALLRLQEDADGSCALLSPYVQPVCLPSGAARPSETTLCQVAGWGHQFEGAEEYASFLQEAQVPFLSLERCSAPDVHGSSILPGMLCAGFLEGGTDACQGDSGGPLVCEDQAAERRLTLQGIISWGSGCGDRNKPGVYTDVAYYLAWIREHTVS

For `COCc1nn(Cc2ccc(Cn3ccccc3=O)cc2)cc1C(=O)NCc1nccc(OC)c1F` [KVD900], the IC50 [1] was > 10 µM, the inhibition at 600 mg ([2]; 1 h post‐dose) was > 97% and the inhibition at 600 mg ([2]; 4 h post‐dose) was > 97%. The inhibition at 600 mg ([2]; 6 h post‐dose) was > 90%, the inhibition at 600 mg ([2]; 8 h post‐dose) was > 83% and the IC50 [3] was > 40 µM. The fraction unbound at 5 h, 5 μM [4] was 0.23, the IC50 [5] was > 10 µM and the IC50 [6] was > 10 µM. For the same molecule, the Cmax [7] was 6570 ng/mL, the Tmax [7] was 1.2 h and the “FXII protection in DXS‐stimulated plasma compared with pre‐dose” value ([8]; 1 and 6 h post‐dose) was “non‐significant”. For the same molecule, the “reduction of DXS‐stimulated generation of FXIIa compared with pre‐dose” value (“reduction” for short) ([8]; 1 h post‐dose) was > 90%, the “reduction” value ([8]; 6 h post‐dose) was > 90% and the “reduction” value ([8]; 8 h post‐dose) was > 90%. For the same molecule, the “time for which DXS‐stimulated generation of cHK was not detectable” value [9] was “at least 6 h”, the “cHK levels in DXS‐stimulated plasma” value ([9]; healthy volunteers, 1, 6 and 8 h post‐dose) was “not significantly increased compared with pre‐dose without DXS” and the “HK remaining after DXS‐stimulation” value ([9]; healthy volunteers, 1 to 8 hours post‐dose) was > 65%. The IC50 [10] was > 40 µM, the inhibition at 600 mg [11] was ≥ 95% and the IC50 [12] was > 40 µM. The IC50 [13] was > 10 µM, the “PK after DXS‐stimulation, % of unstimulated plasma” value ([14]; 1 h post‐dose) was 82.7 ± 4.4% and the “PK after DXS‐stimulation, % of unstimulated plasma” value ([14]; 6 h post‐dose) was 87.0± 4.1%. For the same molecule, the “DXS‐stimulated decrease in PK” value ([14]; later time points (≥8 h)) was “comparable to the PK decrease observed in pre‐dose samples”, the IC50 [15] was > 10 µM and the IC50 [16] was > 40 µM. For the same molecule, the IC50 [17] was > 40 µM, the IC50 [18] was > 10 µM and the “time post‐dose from which inhibition of HK cleavage (and PKa activity) is observed” value ([19]; 600 mg oral) was 15 min. The “cHK levels in DXS‐stimulated plasma” value [19, 25] was “comparable with unstimulated plasma”, the “protection from DXS‐stimulated depletion of HK” value [19, 25] was “strongly protected” and the “DXS‐stimulated generation of cHK” value ([20]; 300 nM) was “fully inhibited”. The “DXS‐stimulated generation of cHK” value ([20]; 1000 nM) was “fully inhibited”, the IC50 ([20]; control plasma, 15 min pre‐treatment, 6.25 µg/ml DXS on ice 17 min, read-out: IC50, protection of HK from DXS‐stimulated depletion) was ~0.2 µM and the IC50 [21] was > 10 µM. The IC50 [22] was > 10 µM and the IC50 [23] was > 10 µM.

B1: C1‐INH: serine protease inhibitor (serpin) that covalently binds and inactivates PKa and FXIIa (protein, UniProt P05155 23-500, looked up)
Plasma protease C1 inhibitor: NPNATSSSSQDPESLQDRGEGKVATTVISKMLFVEPILEVSSLPTTNSTTNSATKITANTTDEPTTQPTTEPTTQPTIQPTQPTTQLPTDSPTQPTTGSFCPGPVTLCSDLESHSTEAVLGDALVDFSLKLYHAFSAMKKVETNMAFSPFSIASLLTQVLLGAGENTKTNLESILSYPKDFTCVHQALKGFTTKGVTSVSQIFHSPDLAIRDTFVNASRTLYSSSPRVLSNNSDANLELINTWVAKNTNNKISRLLDSLPSDTRLVLLNAIYLSAKWKTTFDPKKTRMEPFHFKNSVIKVPMMNSKKYPVAHFIDQTLKAKVGQLQLSHNLSLVILVPQNLKHRLEDMEQALSPSVFKAIMEKLEMSKFQPTLLTLPRIKVTTSQDMLSIMEKLEFFDFSYDLNLCGLTEDPDLQVSAMQHQTVLELTETGVEAAAASAISVARTLLVFEVQQPFLFVLWDQQHKFPVFMGRVYDPRA
In the case of B1, the “reported Kon for PKa” value [24] is listed as 17000 M⁻¹ s⁻¹.

B2: DX‐2930: PKa inhibitor DX‐2930 (lanadelumab), approved treatment for HAE (antibody, chains of the INN, looked up, V domains shown)
VH: EVQLLESGGGLVQPGGSLRLSCAASGFTFSHYIMMWVRQAPGKGLEWVSGIYSSGGITVYADSVKGRFTISRDNSKNTLYLQMNSLRAEDTAVYYCAYRRIGVPRRDEFDIWGQGTMVTVSS
VL: DIQMTQSPSTLSASVGDRVTITCRASQSISSWLAWYQQKPGKAPKLLIYKASTLESGVPSRFSGSGSGTEFTLTISSLQPDDFATYYCQQYNTYWTFGQGTKVEIK
For B2, the “reported Kon for PKa” value [24] is given as 3.4e+06 M⁻¹ s⁻¹.
